Data: ChEMBL document CHEMBL5352466, “New bioisosteric sulphur-containing choline kinase inhibitors with a tracked mode of action” (Eur J Med Chem, 2023)
The source made the active and inactive calls. The rule behind the calls is not given here.

Assays:
[1] = tested on: A549; test: Antiproliferative activity against human A549 cells assessed as inhibition of cell growth incubated for 72 hrs; assay type: functional
[2] = tested on: HT-29; test: Antiproliferative activity against human HT-29 cells assessed as inhibition of cell growth incubated for 72 hrs; assay type: functional
[3] = tested on: HeLa; test: Antiproliferative activity against human HeLa cells assessed as inhibition of cell growth incubated for 72 hrs; assay type: functional
[4] = tested on: MDA-MB-231; test: Antiproliferative activity against human MDA-MB-231 cells assessed as inhibition of cell growth incubated for 72 hrs; assay type: functional
[5] = target: Choline kinase alpha (Homo sapiens, UniProt P35790); test: Inhibition of human Choline kinase alpha 1 incubated for 10 mins by liquid-scintillation counter analysis
Chain of Choline kinase alpha (P35790 whole entry): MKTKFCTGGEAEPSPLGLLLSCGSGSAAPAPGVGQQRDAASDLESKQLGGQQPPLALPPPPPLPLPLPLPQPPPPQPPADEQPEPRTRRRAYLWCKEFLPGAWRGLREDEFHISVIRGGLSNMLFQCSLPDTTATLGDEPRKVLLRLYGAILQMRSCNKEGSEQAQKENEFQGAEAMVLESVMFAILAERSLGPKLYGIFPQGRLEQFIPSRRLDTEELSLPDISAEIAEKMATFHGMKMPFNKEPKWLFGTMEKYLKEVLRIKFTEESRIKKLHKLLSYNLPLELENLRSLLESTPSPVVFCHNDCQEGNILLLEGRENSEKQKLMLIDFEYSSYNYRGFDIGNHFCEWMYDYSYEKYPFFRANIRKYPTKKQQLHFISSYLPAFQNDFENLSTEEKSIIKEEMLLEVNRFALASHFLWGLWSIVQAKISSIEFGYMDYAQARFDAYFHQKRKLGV

[6] = tested on: MCF7; test: Antiproliferative activity against human MCF7 cells assessed as inhibition of cell growth incubated for 72 hrs; assay type: functional
[7] = tested on: HeLa; test: Induction of mitochondrial membrane potential depolarization in human HeLa cells at 1 to 5 uM incubated for 24 hrs by JC-1 staining based flow cytometry; assay type: functional, cell-based; conditions: dose 1-5 µM
[8] = tested on: HeLa; test: Induction of apoptosis in human HeLa cells assessed as increase in cleaved PARP-1 expression at 5 uM measured for 48 hrs by Western blotting analysis; assay type: functional, cell-based
[9] = tested on: HeLa; test: Induction of apoptosis in human HeLa cells at 5 uM measured for 72 hrs in presence of Z-VAD-fmk by Annexin V/propidium iodide staining based flow cytometry analysis; assay type: functional, cell-based
[10] = tested on: A549; test: Induction of cell cycle arrest in human A549 cells at 1 to 5 uM incubated for 24 hrs by PI staining based flow cytometry analysis; assay type: functional; conditions: dose 1-5 µM
[11] = tested on: HeLa; test: Induction of apoptosis in human HeLa cells at 1 to 5 uM measured for 72 hrs by Annexin V/propidium iodide staining based flow cytometry analysis; assay type: functional, cell-based; conditions: dose 1-5 µM
[12] = tested on: HeLa; test: Induction of apoptosis in human HeLa cells at 1 to 5 uM by Annexin V/propidium iodide staining based flow cytometry analysis; assay type: functional, cell-based; conditions: dose 1-5 µM, time 48-72 hrs, TDE = time-dependent effect
[13] = tested on: HeLa; test: Induction of apoptosis in human HeLa cells measured for 48 to 72 hrs by Annexin V/propidium iodide staining based flow cytometry analysis; assay type: functional, cell-based; conditions: dose 1-5 µM, time 48-72 hrs
[14] = tested on: A549; test: Induction of mitochondrial membrane potential depolarization in human A549 cells at 5 uM incubated for 24 hrs by JC-1 staining based flow cytometry; assay type: functional, cell-based
[15] = tested on: HeLa; test: Induction of cell cycle arrest in human HeLa cells at 1 to 5 uM incubated for 24 hrs by PI staining based flow cytometry analysis; assay type: functional; conditions: dose 1-5 µM
[16] = tested on: HeLa; test: Induction of apoptosis in human HeLa cells assessed as reduction in MCL-1 expression at 5 uM measured for 48 hrs by Western blotting analysis; assay type: functional, cell-based
[17] = tested on: Astrocyte; test: Induction of apoptosis in human Astrocyte cells assessed as reduction in MCL-1 expression at 5 uM measured for 48 hrs by Western blotting analysis; assay type: functional, cell-based
[18] = Antiproliferative activity against human Astrocyte cells assessed as inhibition of cell growth incubated for 72 hrs by resazurin dye based assay; assay type: toxicity
[19] = tested on: A549; test: Induction of apoptosis in human A549 cells at 5 uM measured for 72 hrs in presence of Z-VAD-fmk by Annexin V/propidium iodide staining based flow cytometry analysis; assay type: functional, cell-based
[20] = tested on: HeLa; test: Induction of cell cycle arrest in human HeLa cells assessed as accumulation of cells at G1 phase at 1 to 5 uM incubated for 24 hrs by PI staining based flow cytometry analysis; assay type: functional; conditions: dose 1-5 µM
[21] = Antiproliferative activity against human MCF-10A cells assessed as inhibition of cell growth incubated for 72 hrs by resazurin dye based assay; assay type: toxicity

Compound	GI50 [1] [nM]	GI50 [2] [nM]	GI50 [3] [nM]	GI50 [4] [nM]	GI50 [6] [nM]	IC50 ([5]; read-out: IC50) [nM]	further results
CN(C)c1cc[n+](Cc2ccc(SCCSc3ccc(C[n+]4ccc(N(C)C)cc4)cc3)cc2)cc1.[Br-].[Br-]	1380	> 10000	> 10000	4200	–	–	IC50 [5]: Not Determined(Insoluble)
CN(c1ccccc1)c1cc[n+](Cc2ccc(SCCSc3ccc(C[n+]4ccc(N(C)c5ccccc5)c5ccsc54)cc3)cc2)c2sccc12	4050	6800	5250	6680	3940	1430	–
CN(c1ccccc1)c1cc[n+](Cc2ccc(SCCSc3ccc(C[n+]4ccc(N(C)c5ccccc5)c5ccccc54)cc3)cc2)c2ccccc12	2020	5980	9060	1970	4730	1720	–
c1cc(SSc2ccc(C[n+]3ccc(N4CCCC4)cc3)cc2)ccc1C[n+]1ccc(N2CCCC2)cc1	> 10000	> 10000	> 10000	–	–	360	–
c1cc2c(s1)c(N1CCCCCC1)cc[n+]2Cc1ccc(SCCSc2ccc(C[n+]3ccc(N4CCCCCC4)c4sccc43)cc2)cc1	1290	2410	4630	1920	2120	640	Activity [7]: Active; Activity [8]: Active; Activity [9]: Active; Activity [10]: inactive; Activity [11]: Active; Activity [12]: Tde; Activity [13]: Dose-Dependent Effect; Activity [14]: Active; Activity [15]: inactive; Activity [16]: Active; Activity [17]: inactive; GI50 at 72 h [18]: 4400 nM; Activity [19]: inactive; Activity [20]: Active; GI50 at 72 h [21]: 2500 nM
[Br-].[Br-].c1cc2c(s1)c(N1CCCCCC1)cc[n+]2Cc1ccc(SSc2ccc(C[n+]3ccc(N4CCCCCC4)c4sccc43)cc2)cc1	> 10000	> 10000	> 10000	–	–	–	IC50 [5]: Not Determined(Insoluble)
c1cc2c(N3CCCCCC3)cc[n+](Cc3ccc(SCCSc4ccc(C[n+]5ccc(N6CCCCCC6)c6ccsc65)cc4)cc3)c2s1	890	2090	2800	1460	1460	660	Activity [7]: Active; Activity [8]: Active; Activity [9]: Active; Activity [10]: inactive; Activity [11]: Active; Activity [12]: Tde; Activity [13]: Dose-Dependent Effect; Activity [14]: Active; Activity [15]: inactive; Activity [16]: Active; Activity [17]: inactive; GI50 at 72 h [18]: 2500 nM; Activity [19]: inactive; Activity [20]: Active
CN(c1ccc(Cl)cc1)c1cc[n+](Cc2ccc(SCCSc3ccc(C[n+]4ccc(N(C)c5ccc(Cl)cc5)c5ccccc54)cc3)cc2)c2ccccc12	2900	8900	> 10000	5870	3690	1020	–
c1cc2c(N3CCCCCC3)nc[n+](Cc3ccc(SSc4ccc(C[n+]5cnc(N6CCCCCC6)c6ccsc65)cc4)cc3)c2s1	4260	> 10000	1230	–	–	320	–
c1cc2c(N3CCCCC3)cc[n+](Cc3ccc(SCCSc4ccc(C[n+]5ccc(N6CCCCC6)c6ccsc65)cc4)cc3)c2s1	920	2160	2990	1230	1210	4400	–
CN(c1ccc(Cl)cc1)c1cc[n+](Cc2ccc(SCCSc3ccc(C[n+]4ccc(N(C)c5ccc(Cl)cc5)c5ccsc54)cc3)cc2)c2sccc12	2660	6070	> 10000	2950	2370	710	–
